Laboratory results published in publication PMC11440035, “Interaction of myricetin, ampelopsin (dihydromyricetin), and their sulfate metabolites with serum albumin, cytochrome P450 (CYP2C9, 2C19, and 3A4) enzymes, and organic anion‐transporting polypeptides (OATP1B1 and OATP2B1)” (Pharmacology Research & Perspectives, 2024).

What was measured:
OATP1B1 [1] = molecular target: T1, OATP1B1 (Homo sapiens, UniProt Q9Y6L6); parameters: method as in PMID 32661014; conditions: positive control, same experimental model; cited from earlier work
T1 construct: expressed in transfected cells; host or cells: A431
T1 sequence (Q9Y6L6 1-691): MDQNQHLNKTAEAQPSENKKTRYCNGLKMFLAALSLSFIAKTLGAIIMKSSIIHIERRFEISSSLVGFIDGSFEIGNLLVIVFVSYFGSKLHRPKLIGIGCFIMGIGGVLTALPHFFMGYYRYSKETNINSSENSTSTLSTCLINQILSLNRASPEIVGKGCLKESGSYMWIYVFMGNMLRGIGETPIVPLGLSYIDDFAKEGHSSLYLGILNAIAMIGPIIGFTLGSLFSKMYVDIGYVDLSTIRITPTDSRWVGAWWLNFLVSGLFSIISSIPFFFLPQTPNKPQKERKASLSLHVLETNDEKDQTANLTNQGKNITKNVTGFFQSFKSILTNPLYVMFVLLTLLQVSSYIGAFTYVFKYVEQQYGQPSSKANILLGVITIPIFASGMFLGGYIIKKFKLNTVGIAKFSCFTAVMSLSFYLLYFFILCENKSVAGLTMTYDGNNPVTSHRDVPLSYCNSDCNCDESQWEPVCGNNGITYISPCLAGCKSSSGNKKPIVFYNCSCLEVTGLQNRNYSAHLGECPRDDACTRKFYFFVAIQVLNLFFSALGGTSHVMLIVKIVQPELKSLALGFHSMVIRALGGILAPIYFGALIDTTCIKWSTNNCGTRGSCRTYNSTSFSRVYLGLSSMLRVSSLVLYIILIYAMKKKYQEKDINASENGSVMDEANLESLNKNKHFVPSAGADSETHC

OATP2B1 [2] = molecular target: T2, OATP2B1 (Homo sapiens, UniProt O94956); parameters: method as in PMID 32661014; conditions: positive control, same experimental model; cited from earlier work
T2 construct: expressed in transfected cells; host or cells: A431
T2 sequence (O94956 1-709): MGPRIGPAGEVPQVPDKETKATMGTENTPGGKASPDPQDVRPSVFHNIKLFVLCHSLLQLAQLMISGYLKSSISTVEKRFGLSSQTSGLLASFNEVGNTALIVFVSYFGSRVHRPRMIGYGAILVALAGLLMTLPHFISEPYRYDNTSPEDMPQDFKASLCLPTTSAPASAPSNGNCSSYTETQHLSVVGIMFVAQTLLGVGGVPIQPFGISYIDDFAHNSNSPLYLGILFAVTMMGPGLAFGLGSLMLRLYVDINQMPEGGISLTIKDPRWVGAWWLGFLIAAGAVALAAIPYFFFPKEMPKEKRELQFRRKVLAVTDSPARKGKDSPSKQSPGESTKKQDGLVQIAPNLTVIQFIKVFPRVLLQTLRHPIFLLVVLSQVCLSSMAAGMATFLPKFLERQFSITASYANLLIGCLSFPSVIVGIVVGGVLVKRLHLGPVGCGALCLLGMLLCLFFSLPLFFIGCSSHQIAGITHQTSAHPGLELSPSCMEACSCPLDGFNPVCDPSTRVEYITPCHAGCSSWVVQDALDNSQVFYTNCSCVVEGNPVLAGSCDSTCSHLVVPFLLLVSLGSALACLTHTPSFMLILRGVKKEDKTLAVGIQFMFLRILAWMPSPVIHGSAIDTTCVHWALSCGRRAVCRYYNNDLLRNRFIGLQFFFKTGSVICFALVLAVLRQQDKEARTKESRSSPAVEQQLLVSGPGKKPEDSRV

OATP1B1 [3] = molecular target: T1, OATP1B1; test: Uptake of flavonoids by A431-OATP1B1 versus mock cells (APB fluorescence); assay type: cell-based; conditions: BSP 20 μM, M3′S 2 μM, 2 min
Experimental: (§1) Direct uptake of AMP, MYR, and their sulfate metabolites were examined in A431 cells overexpressing OATP1B1 or OATP2B1, and in their mock‐transfected controls using APB as a fluorescence enhancer. One day before the uptake measurements, the cells were seeded onto 96‐well plates at a density of 80 000 cells/well in DMEM (200 μL). The following day, the cell culture medium was removed, and the cells were rinsed thrice with PBS (200 μL). Thereafter, the cells were preincubated with HBSS (50 μL) for 5 min at 37°C. The uptake reaction was initiated by the addition of a further 50 μL of HBSS containing AMP, MYR, or their sulfate conjugates (10 μM). After incubating for 15 min at 37°C, the reaction was stopped by removing the supernatant and rinsing the cells three times with ice‐cold PBS. Then PBS buffer (200 μL) containing APB (250 μg/mL) and BSA (1 mg/mL) was added to each well.[35] The fluorescence was read using an Enspire plate reader using the wavelengths listed in Section 2.7.
(§2) The concentration‐dependent uptake of M3′S was also tested under the same conditions, except the cells were incubated with 0–10 μM M3′S for 2 min (OATP1B1) or 5 min (OATP2B1).
(§3) To test the effect of BSP (a known inhibitor of OATPs[44]) on the cellular uptake of M3′S, cells were preincubated with HBSS buffer (50 μL) with or without BSP (20 μM) for 5 min at 37°C. Thereafter, we added 50 μL of HBSS containing M3′S (final concentration: 2 μM), and cells were further incubated at 37°C for 2 min (OATP1B1) or 5 min (OATP2B1). The reaction was stopped by removing the supernatant. After washing the cells with ice‐cold PBS, a PBS buffer with APB/BSA was added. Fluorescence was determined by applying an Enspire plate reader at excitation/emission wavelengths of 480/540 nm.

OATP2B1 [4] = molecular target: T2, OATP2B1; test: Uptake of flavonoids by A431-OATP2B1 versus mock cells (APB fluorescence); assay type: cell-based; conditions: BSP 20 μM, M3′S 2 μM, 5 min
Experimental: as §1, §2, §3

[5] = system: T3, human serum albumin (HSA); parameters: method as in PMID 30562928, PMID 28135601; conditions: same experimental conditions; cited from earlier work
T3 construct: purchased Merck (Darmstadt, Germany) A1653

CYP3A4 = system: T4, CYP3A4; test: CYP3A4 assay (testosterone hydroxylation), CypExpress human kit; assay type: biochemical; conditions: 20 μM, 5 μM substrate
T4 construct: purchased Merck (Darmstadt, Germany)

CYP2C9 = conditions: 20 μM test substance, 5 μM substrate

O=C1OC(c2ccc(O)c(S(=O)(=O)O)c2)(c2ccc(O)c(S(=O)(=O)O)c2)c2c(Br)c(Br)c(Br)c(Br)c21 [BSP, bromosulfophthalein, reference compound]
IC50 (OATP1B1 [1]): 60 nM | IC50 (OATP2B1 [2]): 1300 nM | effect on uptake of M3′S into OATP1B1‐overexpressing cells (OATP1B1 [3]): considerably decreased the uptake of M3′S | effect on uptake of M3′S into OATP2B1‐overexpressing cells (OATP2B1 [4]): considerably decreased the uptake of M3′S

O=c1cc(-c2ccccc2)oc2cc(OS(=O)(=O)O)cc(O)c12 [chrysin‐7‐sulfate]
displacement of the site marker warfarin from HSA [5]: almost completely displaced the site marker

CC(=O)N1CCN(c2ccc(OCC3COC(Cn4ccnc4)(c4ccc(Cl)cc4Cl)O3)cc2)CC1 (centres unmarked) [ketoconazole]
effect on CYP3A4 metabolite formation (CYP3A4): marked decreases in metabolite formation

O=c1c(O)c(-c2ccc(O)c(OS(=O)(=O)O)c2)oc2cc(O)cc(O)c12 [quercetin‐3′‐sulfate]
displacement of the site marker warfarin from HSA [5]: almost completely displaced the site marker

Nc1ccc(S(=O)(=O)Nc2ccnn2-c2ccccc2)cc1 [sulfaphenazole]
effect on CYP2C9‐catalyzed diclofenac hydroxylation (metabolite formation) (CYP2C9): marked decreases in metabolite formation
